Source: ChEMBL document CHEMBL4619752, “Optimization and biological evaluation of thiazole-bis-amide inverse agonists of RORγt” (Bioorg Med Chem Lett, 2020)
In brackets after ≈: the same amount, converted by molar mass.

Tests used:
in vitro [1] = settings: rat, microsomes
in vitro [2] = settings: human, microsomes
physchem [3] = settings: buffer, pH 7
physchem [4] = settings: buffer, pH 2
in vivo [5] = settings: rat, po, 50 mg/kg
in vivo [6] = settings: rat, po, 50 mg/kg; remark: listed apart in the source
in vivo [7] = settings: rat, po, 50 mg/kg; remark: listed apart in the source
in vivo [8] = settings: rat, po, 200 mg/kg
in vivo [9] = settings: rat, po, 50 mg/kg; remark: listed apart in the source
in vivo [10] = settings: rat, po, 50 mg/kg; remark: listed apart in the source
in vivo [11] = settings: rat, po, 200 mg/kg; remark: listed apart in the source
in vivo [12] = settings: rat, po, 200 mg/kg; remark: listed apart in the source
in vivo [13] = settings: rat, po, 200 mg/kg; remark: listed apart in the source
in vivo [14] = settings: rat, po, 200 mg/kg; remark: listed apart in the source
in vivo [15] = settings: rat, po, 200 mg/kg; remark: listed apart in the source
in vivo [16] = settings: rat, po, 50 mg/kg; remark: listed apart in the source

Structure (SMILES)	half-life (in vitro [1])	half-life (in vitro [2])	solubility (physchem [3])	solubility (physchem [4])	also measured
CC(C)(O)CNC(=O)c1nc(CC2CCCCC2)c(-c2ccc(S(=O)(=O)NC(C)(C)C)c3ccccc23)s1	0.783 h	1.25 h	< 1 µM	–	–
C[C@H](NS(=O)(=O)c1ccc(-c2sc(C(=O)NCC(C)(C)O)nc2C(=O)N2CC[C@H](F)C[C@@H]2C)c(Cl)c1Cl)C(F)(F)F	1.13 h	> 3 h	54 µM (≈ 35.8 µg/mL)	40 µM (≈ 26.5 µg/mL)	–
C[C@H](NS(=O)(=O)c1ccc(-c2sc(C(=O)NCC(C)(C)O)nc2C(=O)N2CCCC[C@@H]2C)c(Cl)c1Cl)C(F)(F)F	0.817 h	> 3 h	21 µM (≈ 13.6 µg/mL)	19 µM (≈ 12.3 µg/mL)	–
CC(C)(O)CNC(=O)c1nc(C(=O)N2CCCCC2)c(-c2ccc(S(=O)(=O)NC(C)(C)C)c3ccccc23)s1	0.2 h	1.35 h	1.1 µM (≈ 0.63 µg/mL)	–	–
CC[C@H](NS(=O)(=O)c1ccc(-c2sc(C(=O)NCC(C)(C)O)nc2C(=O)N(CC)CC)c(Cl)c1Cl)C(F)(F)F	> 3 h	> 3 h	44 µM (≈ 27.9 µg/mL)	32 µM (≈ 20.3 µg/mL)	–
C[C@H](NS(=O)(=O)c1ccc(-c2sc(C(=O)NCC(C)(C)O)nc2C(=O)N2CC[C@@H](F)C[C@@H]2C)c(Cl)c1Cl)C(F)(F)F	–	–	47 µM (≈ 31.2 µg/mL)	41 µM (≈ 27.2 µg/mL)	–
C[C@H](NS(=O)(=O)c1ccc(-c2sc(C(=O)NCC(C)(C)O)nc2C(=O)N2CCC(F)CC2)c(Cl)c1Cl)C(F)(F)F	> 3 h	> 3 h	116 µM (≈ 75.3 µg/mL)	114 µM (≈ 74 µg/mL)	Cmax at 14 day (in vivo [5]): 417 ng/mL; AUC (in vivo [6]): 1110 ng·h/mL; Cmax at 4 day (in vivo [7]): 252 ng/mL; AUC (in vivo [8]): 6000 ng·h/mL; Cmax (in vivo [9]): 11200 ng/mL; AUC (in vivo [10]): 31500 ng·h/mL; Cmax (in vivo [11]): 49400 ng/mL; Cmax at 14 day (in vivo [12]): 1280 ng/mL; AUC (in vivo [13]): 282000 ng·h/mL; AUC (in vivo [14]): 5020 ng·h/mL; Cmax at 4 day (in vivo [15]): 1900 ng/mL; AUC (in vivo [16]): 870 ng·h/mL
C[C@H](NS(=O)(=O)c1ccc(-c2sc(C(=O)NCC(C)(C)O)nc2C(=O)N2CC3CC3C2)c(Cl)c1Cl)C(F)(F)F (some centres undefined)	–	–	8.7 µM (≈ 5.48 µg/mL)	7 µM (≈ 4.41 µg/mL)	–
C[C@H](NS(=O)(=O)c1ccc(-c2sc(NC(=O)CC(C)(C)O)nc2C(=O)N2CCC(F)CC2)c(Cl)c1Cl)C(F)(F)F	2.45 h	> 3 h	15 µM (≈ 9.74 µg/mL)	16 µM (≈ 10.4 µg/mL)	–
C[C@H](NS(=O)(=O)c1ccc(-c2sc(C(=O)NCC(C)(C)O)nc2C(=O)N2CCC[C@@H]2CF)c(Cl)c1Cl)C(F)(F)F	–	–	4 µM (≈ 2.6 µg/mL)	< 4 µM	–
